The values that follow come from US10501438B2, “Aryl-substituted dihydroquinolinones, their preparation and their use as pharmaceuticals” (NEOMED Institute, priority 2015, dated 2019).

In assay [1] the target is BRD4(BD1) (Homo sapiens (Human), UniProt O60885). In words: In vitro bromodomain inhibition assay (AlphaLISA). The assay is classed as binding. To be noted: His-tagged BRD4 BD1 200 nM, biotinylated H4-tetraacetyl peptide 200 nM. On the procedure: a) In Vitro Bromodomain Inhibition Assay
To measure activity of bromodomain inhibitors, a His-epitope tagged BRD4 BD149-170 is purchased from BPS Bioscience. BRD4 binding and inhibition is assessed by monitoring the engagement of biotinylated H4-tetraacetyl peptide (H4K5/8/12/16; AnaSpec #64989-025) with the target using the AlphaLISA technology (Perkin-Elmer). Specifically, in a 384 well OptiPlate, BRD4(BD1) (200 nM final) is pre-incubated with either DMSO (final 1.0% DMSO) or a compound dilution series in DMSO. All reagents are diluted in assay buffer containing 50 mM HEPES (pH 7.4), 100 mM NaCl, 0.1% (w/v) BSA, and 0.05% (w/v) CHAPS. After a 30 min incubation at rt, H4 peptide is added (200 nM final) and the reaction is incubated an additional 30 min at rt. Alpha streptavidin donor beads and AlphaLISA nickel chelate acceptor beads are then added to a final concentration of 10 μg/mL each. After one hour, equilibration plates are read on an Envision instrument and IC50s calculated using a four parameter non-linear curve fit (results are shown in Table 2).

Assay [2] relates to human C-Myc transcription in MV-4-11 cells. In words: Transcription of human C-Myc in human leukemic MV-4-11 cells (QuantiGene 2.0). The assay is classed as cell-based. To be noted: Homo sapiens, MV4-11, 4 h, inhibition of C-Myc mRNA, 4 hours treatment. A digest of the protocol: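 MV-4-11 cells (8,000/well) exposed to 1:3 serial compound dilutions for 4 h, 0.1% final DMSO, in Iscove's medium with 10% FBS. C-Myc mRNA quantified in lysates by QuantiGene 2.0 branched-DNA hybridisation with a gene-specific probe and luminescence read-out.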

Take `Cc1cc(-c2cc3c(c(NC4CCOCC4)c2)NC(=O)CC3)cn(C)c1=O` [Compound 18, 6-(1,5-dimethyl-6-oxo-3-pyridyl)-8-(tetrahydropyran-4-ylamino)-3,4-dihydro-1H-quinolin-2-one]: the 50% inhibitory concentration (IC50) was 0.42 µM in assay [1] and 0.79 µM in assay [2].

Take `Cc1cc(-c2cc3c(c(CNC4CCCC4)c2)NC(=O)CC3)cn(C)c1=O` [Compound 19, 8-[(cyclopentylamino)methyl]-6-(1,5-dimethyl-6-oxo-3-pyridyl)-3,4-dihydro-1H-quinolin-2-one]: the half-maximal inhibitory concentration (IC50) in assay [1] is 0.7 µM; in assay [2], 0.9 µM.

Consider `Cc1cc(-c2cc3c(c(CN4CCCCC4)c2)NC(=O)CC3)cn(C)c1=O` [Compound 13, 6-(1,5-dimethyl-6-oxo-3-pyridyl)-8-(1-piperidylmethyl)-3,4-dihydro-1H-quinolin-2-one], for which the IC50 stood at 1.3 µM in assay [1] and 1.58 µM in assay [2].

Consider `Cc1cc(-c2cc3c(c(N(C)c4ccccc4)c2)NC(=O)CC3)cn(C)c1=O` [Compound 14, 6-(1,5-dimethyl-6-oxo-3-pyridyl)-8-(N-methylanilino)-3,4-dihydro-1H-quinolin-2-one], for which the IC50 in assay [1] was 0.35 µM; in assay [2] it was 0.19 µM.

Consider `Cc1cc(-c2cc3c(c(NC4CCCCC4)c2)NC(=O)CC3)cn(C)c1=O` [Compound 6, 8-(cyclohexylamino)-6-(1,5-dimethyl-6-oxo-3-pyridyl)-3,4-dihydro-1H-quinolin-2-one], for which the figures for the half-inhibitory concentration (IC50) in assay [1] and in assay [2] were 0.81 µM and 0.75 µM, respectively.

With `Cc1cc(-c2cc3c(c(NCc4ccccc4)c2)NC(=O)CC3)cn(C)c1=O` [Compound 4, 8-(benzylamino)-6-(1,5-dimethyl-6-oxo-3-pyridyl)-3,4-dihydro-1H-quinolin-2-one], the results for the concentration for half-maximal inhibition (IC50) in assay [1] and in assay [2] were 0.28 µM and 0.09 µM, respectively.

Turning to `Cc1cc(-c2cc3c(c(NCc4ccccn4)c2)NC(=O)CC3)cn(C)c1=O` [Compound 12, 6-(1,5-dimethyl-6-oxo-3-pyridyl)-8-(2-pyridylmethylamino)-3,4-dihydro-1H-quinolin-2-one], the concentration for half-maximal inhibition (IC50) in assay [1] amounted to 0.11 µM; in assay [2], 0.09 µM.

For `Cc1cc(-c2ccc3c(c2Cc2ccccc2)CCC(=O)N3C)cn(C)c1=O` [Compound 9, 5-benzyl-6-(1,5-dimethyl-6-oxo-3-pyridyl)-1-methyl-3,4-dihydroquinolin-2-one], the IC50 in assay [1] is 0.27 µM; in assay [2], 0.26 µM.

As to `Cc1cc(-c2cc3c(cc2Cc2ccccc2)NC(=O)CC3)cn(C)c1=O` [Compound 8, 7-benzyl-6-(1,5-dimethyl-6-oxo-3-pyridyl)-3,4-dihydro-1H-quinolin-2-one], the values for the IC50 in assay [1] and in assay [2] were 0.28 µM and 0.24 µM, respectively.

`Cc1cc(-c2cc3c(cc2Cc2ccccc2)N(C)C(=O)CC3)cn(C)c1=O` [Compound 10, 7-benzyl-6-(1,5-dimethyl-6-oxo-3-pyridyl)-1-methyl-3,4-dihydroquinolin-2-one]: the IC50 in assay [1] amounted to 0.48 µM; in assay [2], 0.25 µM.

As for `Cc1cc(-c2cc3c(c(Nc4cccnc4)c2)NC(=O)CC3)cn(C)c1=O` [Compound 11, 6-(1,5-dimethyl-6-oxo-3-pyridyl)-8-(3-pyridylamino)-3,4-dihydro-1H-quinolin-2-one], the IC50 worked out at 0.35 µM in assay [1] and 2.12 µM in assay [2].

In the case of `Cc1cc(-c2ccc3c(c2Cc2ccccc2)CCC(=O)N3)cn(C)c1=O` [Compound 7, 5-benzyl-6-(1,5-dimethyl-6-oxo-3-pyridyl)-3,4-dihydro-1H-quinolin-2-one], the concentration for half-maximal inhibition (IC50) in assay [1] was determined as 0.14 µM; in assay [2] it was 0.09 µM.

As for `Cc1cc(-c2cc3c(c(Cc4ccccc4)c2)NC(=O)CC3)cn(C)c1=O` [Compound 1, 8-benzyl-6-(1,5-dimethyl-6-oxo-3-pyridyl)-3,4-dihydro-1H-quinolin-2-one], the figures for the IC50 in assay [1] and in assay [2] were 0.41 µM and 0.16 µM, respectively.

Regarding `Cc1cc(-c2cc3c(c(Cc4ccccc4)c2)N(C)C(=O)CC3)cn(C)c1=O` [Compound 2, 8-benzyl-6-(1,5-dimethyl-6-oxo-3-pyridyl)-1-methyl-3,4-dihydroquinolin-2-one], the half-inhibitory concentration (IC50) in assay [1] is 0.56 µM; in assay [2] it was 0.21 µM.

For the molecule `Cc1cc(-c2cc3c(c(OCc4cocn4)c2)NC(=O)CC3)cn(C)c1=O` [Compound 84, 6-(1,5-dimethyl-6-oxo-1,6-dihydropyridin-3-yl)-8-(oxazol-4-ylmethoxy)-3,4-dihydroquinolin-2(1H)-one], it took 0.51 µM to reach half-maximal inhibition in assay [2] (IC50).

Turning to `Cc1cc(-c2cc3c(c(NC(C)c4ccccn4)c2)NC(=O)CC3)cn(C)c1=O` (stereo not drawn) [Compound 22, 6-(1,5-dimethyl-6-oxo-3-pyridyl)-8-[1-(2-pyridyl)ethylamino]-3,4-dihydro-1H-quinolin-2-one], in assay [2], the half-maximal inhibitory concentration (IC50) turned out to be 0.24 µM.

In the case of `Cc1cc(-c2ccc3c(c2COC2CCC2)CCC(=O)N3)cn(C)c1=O` [Compound 67, 5-(cyclobutoxymethyl)-6-(1,5-dimethyl-6-oxo-1,6-dihydropyridin-3-yl)-3,4-dihydroquinolin-2(1H)-one], the concentration for half-maximal inhibition (IC50) in assay [2] is 2.03 µM.

In assay [2], `Cc1cc(-c2cc3c(cc2Cc2ccc(F)cc2)NC(=O)CC3)cn(C)c1=O` [Compound 90, 6-(1,5-dimethyl-6-oxo-1,6-dihydropyridin-3-yl)-7-(4-fluorobenzyl)-3,4-dihydroquinolin-2(1H)-one] came in with an IC50 of 0.24 µM.

Consider `Cc1cc(-c2cc3c(c(Nc4ccccc4)c2)NC(=O)CC3)cn(C)c1=O` [Compound 3, 8-anilino-6-(1,5-dimethyl-6-oxo-3-pyridyl)-3,4-dihydro-1H-quinolin-2-one], for which the IC50 in assay [1] came to 0.51 µM; in assay [2] it was 0.58 µM.

In assay [2], `Cc1ccc(COc2cc(-c3cc(C)c(=O)n(C)c3)cc3c2NC(=O)CC3)nc1` [Compound 75, 6-(1,5-dimethyl-6-oxo-1,6-dihydropyridin-3-yl)-8-((5-methylpyridin-2-yl)methoxy)-3,4-dihydroquinolin-2(1H)-one] displayed an IC50 of 0.18 µM.

With `Cc1cc(-c2ccc3c(c2Cc2ccccc2)NC(=O)CC3)cn(C)c1=O` [Compound 30, 8-benzyl-7-(1,5-dimethyl-6-oxo-1,6-dihydropyridin-3-yl)-3,4-dihydroquinolin-2(1H)-one], the midpoint of inhibition in assay [2], the IC50, lay at 0.25 µM.

Take `Cc1cc(-c2cc3c(c(OCc4ccccc4)c2)NC(=O)CC3)cn(C)c1=O` [Compound 17, 8-(benzyloxy)-6-(1,5-dimethyl-6-oxo-1,6-dihydropyridin-3-yl)-3,4-dihydroquinolin-2(1H)-one]: the IC50 was determined as 0.18 µM in assay [1] and 0.24 µM in assay [2].

With `Cc1cc(-c2cc3c(c(OCc4ccc(F)cn4)c2)NC(=O)CC3)cn(C)c1=O` [Compound 77, 6-(1,5-dimethyl-6-oxo-1,6-dihydropyridin-3-yl)-8-((5-fluoropyridin-2-yl)methoxy)-3,4-dihydroquinolin-2(1H)-one], in assay [2], the half-inhibitory concentration (IC50) is 2.28 µM.
